Assay results reported in patent US20200113920A1, “COMPOSITIONS AND METHODS FOR TREATMENT OF MICROSPORIDIA INFECTION USING PROTEASOME INHIBITORS INCLUDING IXAZOMIB” (BARNARD COLLEGE, priority 2018, published 2020).
Counter-ions that a name gives are not always drawn. Non-standard residues stand in square brackets, D forms with d. Residues, ends and D or L forms follow the SMILES beside them. ξ: configuration not given here. *: point of attachment. Cbz = O=C(OCc1ccccc1)*; ξL = CC(C)CC(N)C(=O)O

How the values were obtained:
N. ceranae [1] = experiment: N. ceranae infection in newly eclosed, experimentally infected honey bees fed proteasome inhibitors (spore counting and quantitative PCR); assay type: in vivo, Nosema ceranae; settings: for infection intensity after cessation of treatment (rebound): four days treatment, then sucrose solution alone for 4 days, spore counting and DNA; for efficacy against N. ceranae infection relative to Fumagillin: feeding bees during N. ceranae infection
Text: To standardize experiments by using age-matched bees and to allow for longer treatment periods, we used newly enclosed bees and tested the effects of a number of commercially available proteasome inhibitors, including Ixazomib (MLN2238) (purchased from Selleck Chemicals), Ixazomib citrate (MLN9708) (purchased from Selleck Chemicals), Oprozomib (ONX 0912) (purchased from Selleck Chemicals), Dexazomib (purchased from Selleck Chemicals), Carfilzomib (purchased from Selleck Chemicals), Bortezomib (purchased from Selleck Chemicals), Epoxomicin (purchased from Selleck Chemicals), HMB-Val-Ser-Leu-VE (purchased from Cayman Chemical), MG-262 (purchased from APExBIO), and the two stereoisomers of MG132 (S and R) (purchased from Cayman Chemical) as well as Fumagillin (purchased from Selleck Chemicals). On day two post-eclosion, N. ceranae spores (5×10^6 ml) were fed to bees in sucrose solution ad libitum (Fries et al. 2013) for 48 hours. At 3 days post infection, honey bees in individual cages were fed sucrose solution containing one of the pharmacologic agents at 40 μM or vehicle control alone. For each trial, we tested pairs of novel compounds simultaneously with an untreated group, a Fumagillin treated group, and an Ixazomib-treated group. After 4 days of drug feeding, honey bee midguts were dissected, and infection levels were assessed by spore counting and quantitative PCR.
We focused on ixazomib and ixazomib citrate for further experiments. Again using newly eclosed bees, we treated infected bees for up to eight days with ixazomib, Fumagillin, or sucrose solution alone, and measured infection level by spore counting and DNA on days 4 and 8 post initiation of treatment (FIGS. 4A and 4B). […] Finally, the goal was to determine whether any rebound of N. ceranae infection was observed after cessation of treatment by ixazomib and ixazomib citrate as has been reported for Fumagillin (Huang et al. 2013). Infected newly eclosed bees were treated with sucrose solution containing ixazomib, ixazomib citrate, Fumagillin, or vehicle alone for four days. We then switched all cages to sucrose solution alone for 4 days and then measured infection level by spore counting and DNA. We observed that infection intensity stayed the same for bees receiving sucrose solution for the whole experiment, increased for those bees treated with Fumagillin first, and decreased for those bees fed either ixazomib or ixazomib citrate first (FIGS. 4E and 4F).

N. ceranae [2] = experiment: N. ceranae infection intensity in experimentally infected honey bees fed drug in sucrose syrup; assay type: in vivo, Nosema ceranae
Method: that works by reacting with the β5 subunit responsible for chymotrypsin-like activity (Goldberg, 2012). After experimentally infecting bees, infected bees were fed sucrose syrup or sucrose syrup containing 500 μM MG132 for 2 days starting on day 6 post infection. On day 8 post infection, spore levels were then measured using light microscopy to determine the effects of proteasome inhibition on N. ceranae infection intensity. […] MG132 is a poorly bioavailable proteasome inhibitor with known toxicity in multicellular eukaryotes. […] Significant effort has been directed towards finding novel strategies for targeting the proteasome (Goldberg, 2012; Śledź and Baumeister, 2016; Cromm and Crews, 2017), providing a number of pharmacologic agents with better efficacy, improved bioavailability, and increased selectivity. We first tested the ability of ixazomib, a modified peptide boronic acid that binds the β5 site of the 20 S proteasome and inhibits proteasome activity (Kupperman et al. 2010), to reduce N. ceranae infection in honey bees. Ixazomib is commercially available (e.g., from Selleck Chemincals) and has the structure of […]

Encephalitozoon hellem = experiment: E. hellem infection of RK-13 cells, qPCR-based assay of pathogen and host cell genome equivalents; settings: four-day infection of RK-13 cells
Text: (§1) Thus, it was hypothesized that pharmacological inhibition of the UPS will reduce infection intensity of diverse microsporidia in their respective host species. To test this hypothesis, we chose to focus on Encephalitozoon hellem, a microsporidia species first described as the cause of keratoconjunctivitis in 3 AIDS patients in 1991 (Didier et al. 1991) and subsequently observed in numerous immunocompromised patients (Weiss and Becnel, 2014). The genome of E. hellem has been sequenced (Pombert et al. 2012) and it is easily culturable (Molestina et al. 2014), making it ideal for such studies.

honey bees = experiment: Honey bee survival during drug feeding; assay type: in vivo, Apis mellifera; settings: 40 μM in sucrose solution for 10 days starting day 3 post-eclosion, newly emerged bees
Method: To assess the impact of ixazomib treatment on age-matched honey bees, newly emerged bees were fed sucrose solution containing ixazomib, ixazomib citrate, Fumagillin (all at 40 μM), or vehicle alone for 10 days starting on day 3 post-eclosion.

N. ceranae [3] = experiment: N. ceranae infection in naturally infected bees from a highly infected colony; assay type: in vivo, Nosema ceranae; settings: bees from a highly infected colony (prevalence>90% infected); fed 2 days vs DMSO vehicle control
[4] = test system: rabbit kidney cell line (RK-13) cells; experiment: Rabbit cell numbers in E. hellem-infected RK-13 culture; assay type: cell-based; settings: 10-100 nM ixazomib; four-day infection of RK-13 cells
Text: as §1

**Q.** CO[C@@H]1[C@H](OC(=O)/C=C/C=C/C=C/C=C/C(=O)O)CC[C@]2(CO2)[C@H]1[C@@]1(C)O[C@@H]1CC=C(C)C [Fumagillin] was tested. Which “infection intensity after cessation of treatment (rebound)” value (N. ceranae [1]) did it give?
**A.** The value was “increased”.

**Q.** What about the “N. ceranae infection intensity, Fumagillin compared with MG132” value (N. ceranae [2]; two days of feeding Fumagillin, data not shown) of the same compound?
**A.** The value was “similar”.

**Q.** And the “E. hellem infection intensity, Fumagillin compared with ixazomib” value (Encephalitozoon hellem; 50 ng/ml Fumagillin)?
**A.** The value was “comparable”.

**Q.** And the honey bee survival (honey bees)?
**A.** The honey bee survival was “no differences in the survival between treatments”.

**Q.** How did the “infection level by relative genome equivalents” value (N. ceranae [1]; 40 μM in sucrose solution, from 3 days post infection, 4 days of drug feeding, midguts, quantitative PCR) turn out when CCOC(=O)/C=C/[C@H](CC(C)C)NC(=O)[C@H](CO)NC(=O)[C@@H](NC(=O)c1cccc(O)c1C)C(C)C [HMB-Val-Ser-Leu-VE] was run?
**A.** Its value is “all tested proteasome inhibitors except HMB-Val-Ser-Leu-VE”.

**Q.** Which honey bee survival (honey bees) does the source give for CC(C)C[C@H](NC(=O)CNC(=O)c1cc(Cl)ccc1Cl)B1OC(=O)C(CC(=O)O)(CC(=O)O)O1 [Ixazomib citrate] here?
**A.** Its honey bee survival is “no differences in the survival between treatments”.

**Q.** Which “N. ceranae infection by both spore-counting and DNA analysis” value (N. ceranae [3]) does the source give for CC(C)C[C@H](NC(=O)CNC(=O)c1cc(Cl)ccc1Cl)B(O)O [Ixazomib] here?
**A.** The value was “striking reduction”.

**Q.** What about the “N. ceranae infection intensity by spore counting and DNA analysis” value (N. ceranae [1]; 2.5 μM) of the same compound?
**A.** The value was “diminished, but still robust, reduction in infection intensity”.

**Q.** What about the “impact on N. ceranae infection levels (ranking among tested inhibitors)” value (N. ceranae [1]; 40 μM, 4 days of drug feeding, spore counting and quantitative PCR) of the same compound?
**A.** Its value is “most effective at reducing infection levels”.

**Q.** What about the “efficacy against N. ceranae infection relative to Fumagillin” value (N. ceranae [1]) of the same compound?
**A.** The value was “better efficacy than Fumagillin”.

**Q.** What about the “infection intensity after cessation of treatment (rebound)” value (N. ceranae [1]) of the same compound?
**A.** The value was “decreased”.

**Q.** What about the “N. ceranae infection level, dose and time dependence” value (N. ceranae [1]; treated up to eight days, measured days 4 and 8, spore counting and DNA analysis (FIGS. 4A-4F)) of the same compound?
**A.** The value was “stably reduces N. ceranae infection level in a dose and time dependent manner”.

**Q.** What about the rabbit cell numbers [4] of the same compound?
**A.** Its rabbit cell numbers is “without substantial reduction in rabbit cell numbers”.

**Q.** And the “E. hellem infection intensity” value (Encephalitozoon hellem; 10-100 nM ixazomib, preliminary results)?
**A.** The value was “reduces E. hellem infection intensity”.

**Q.** What about the honey bee survival (honey bees) of the same compound?
**A.** The honey bee survival was “no differences in the survival between treatments”.

**Q.** Which “efficacy against N. ceranae infection relative to Fumagillin” value (N. ceranae [1]) does the source give for CC(C)CC(NC(=O)[C@H](CC(C)C)NC(=O)OCc1ccccc1)C(=O)N[C@H](C=O)CC(C)C (stereo partly drawn) [MG132] (Cbz-Leu-[ξL]-Leu-aldehyde) here?
**A.** Its value is “not as efficacious as Fumagillin”.

**Q.** And the “N. ceranae infection intensity (spore levels by light microscopy)” value (N. ceranae [2]; experimentally infected bees, 500 μM MG132 in sucrose syrup for 2 days (48 hours) from day 6 post infection, measured day 8)?
**A.** Its value is “dramatic reduction in infection intensity”.
